{"source": "patent US11857555B2", "about": "“Aqueous pharmaceutical formulation of hydrocortisone sodium phosphate and monothioglycerol” (ANTARES PHARMA, INC., priority 2020, dated 2024)", "key": {"[1]": {"assay": "Forced degradation of HCP API under stress conditions (0.1 N HCl, 0.1 N NaOH, dry heat)", "assay_type": "physicochemical", "conditions": "3 different stress conditions: 0.1 N HCl, qualitative", "experimental": "To develop this method, Hydrocortisone sodium phosphate API was kept under stress conditions. These stress conditions included treatment with 0.1 N HCl, 0.1 N NaOH and dry heat. This was performed to investigate the nature of API and its compatibility with the stress conditions. It also helped generate degradation products to assess the specificity of the HPLC method under development. Information on degradation products and the conditions used to generate them was used to optimize the method for better resolution of such degradation products on chromatogram. FIGS. 3A-3C show chromatograms of HCP under stress conditions.\nThe proportions in which the degradants formed depended on the stress condition. Stress studies performed on the API were done for qualitative purpose only."}, "[2]": {"conditions": "light, strong acids and alkalies; cited from earlier work"}}}
{"smiles": "C[C@]12CCC(=O)C=C1CC[C@@H]1[C@@H]2[C@@H](O)C[C@@]2(C)[C@H]1CC[C@]2(O)C(=O)COP(=O)([O-])[O-].[Na+].[Na+]", "note": "[HCP, Hydrocortisone sodium phosphate]", "values": [{"measurement": "forced degradation outcome (in words)", "setting": "[1]", "result": "formation of Hydrocortisone, other common degradants"}]}
{"smiles": "C[C@]12CCC(=O)C=C1CC[C@@H]1[C@@H]2[C@@H](O)C[C@@]2(C)[C@H]1CC[C@]2(O)C(=O)CO", "note": "[Hydrocortisone]", "values": [{"measurement": "stability (in words)", "setting": "[2]", "result": "sensitive to light and unstable in strong acids and alkalies"}]}
